Assay results as given in PMC5515969, “Effects of 31 FDA approved small-molecule kinase inhibitors on isolated rat liver mitochondria” (Archives of Toxicology, 2016).
Like-named read-outs stand apart in the source and are kept apart here.

How the values were obtained:
[1] = cited from earlier work
RCC IV = RCC IV activity in submitochondrial particles; assay type: biochemical, rat; parameters: key to RCC IV at 50XCmax / RCC IV at 100XCmax: activity relative to DMSO-treated controls (control set as 1 = 100%); details: 50XCmax, in %
Procedure, shortened: (§1)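 Rat submitochondrial particles (1 mg/ml) were treated with test compounds for 15 min. RCC IV, like RCC III, was monitored at 550 nm every 10 s for 2 min, and RCC I/V at 340 nm each minute for 6 min. DMSO samples defined unit activity.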

RCC I = RCC I activity in submitochondrial particles; assay type: biochemical, rat; parameters: key to RCC I at 10XCmax / RCC I at 100XCmax / RCC I at 50XCmax / RCC I at 30XCmax / RCC I at 20XCmax: activity relative to DMSO-treated controls (control set as 1 = 100%); details: 10XCmax
Procedure, shortened: as §1

[2] = tested on: isolated rat liver mitochondria; assay: Mitochondrial swelling (absorbance at 535 nm); assay type: biochemical; details: difference in signal between KI and DMSO treated samples at the end of experiments; as to Swelling 5XCmax: key: 0 indicates that the drug had no effects (negative)
[3] = cited from earlier work; remark: listed apart in the source
RCC V = RCC V activity in submitochondrial particles; assay type: biochemical, rat; as to RCC V at 5XCmax: key: 0 indicates that the drug had no effects (negative)
Procedure, shortened: as §1

[4] = tested on: isolated rat liver mitochondria; assay: Mitochondrial oxygen consumption (glutamate/malate or succinate driven, state 4 and state 3); assay type: biochemical; details: for Glutamate/malate driven respiration State 3 / Glutamate/malate driven respiration State 4 / Succinate-driven respiration State 3 / Succinate-driven respiration State 4: oxygen consumption, DMSO-treated = 1; as to State 3 respiration driven by succinate at 10XCmax: key: 0 indicates that the drug had no effects (negative); as to State 3 respiration driven by succinate at 1XCmax: key: 0 indicates that the drug had no effects (negative)
Procedure, shortened: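 Oxygen uptake on glutamate/malate or on succinate defined state 4; ADP added 3 min later gave state 3. Mitochondria isolated from rat liver by differential centrifugation, adjusted to 1 mg/ml and pretreated 5 min with inhibitor (0.1% DMSO final). Values relative to DMSO control, set to 1.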

RCC II = biological target: T1, RCC II (Rattus norvegicus, UniProt P21913+Q641Z9+Q6PCT8+Q920L2); assay: RCC II activity in submitochondrial particles; assay type: biochemical; parameters: key: activity relative to DMSO-treated controls (control set as 1 = 100%)
T1 construct: Submitochondrial particles were prepared by subjecting the intact mitochondria to three successive freeze–thaw cycles; from tissue; host or cells: rat liver mitochondria, used as submitochondrial particles
T1 sequence (Q920L2 35-656): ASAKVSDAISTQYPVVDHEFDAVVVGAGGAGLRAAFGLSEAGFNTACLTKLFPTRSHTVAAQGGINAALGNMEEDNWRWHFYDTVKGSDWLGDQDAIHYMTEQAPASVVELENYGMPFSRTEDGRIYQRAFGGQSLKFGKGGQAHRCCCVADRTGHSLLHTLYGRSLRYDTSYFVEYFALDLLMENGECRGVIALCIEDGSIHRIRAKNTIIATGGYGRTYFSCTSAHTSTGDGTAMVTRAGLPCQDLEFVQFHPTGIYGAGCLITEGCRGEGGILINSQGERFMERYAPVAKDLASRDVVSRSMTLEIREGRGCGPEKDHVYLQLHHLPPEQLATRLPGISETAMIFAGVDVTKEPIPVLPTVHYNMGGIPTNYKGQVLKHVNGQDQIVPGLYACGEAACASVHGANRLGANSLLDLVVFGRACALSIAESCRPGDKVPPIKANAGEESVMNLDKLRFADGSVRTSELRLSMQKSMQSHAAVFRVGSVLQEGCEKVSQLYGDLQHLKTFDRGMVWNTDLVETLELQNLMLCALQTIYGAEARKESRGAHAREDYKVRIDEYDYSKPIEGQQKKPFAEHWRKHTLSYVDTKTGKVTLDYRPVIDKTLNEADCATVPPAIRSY
T1 sequence (P21913 31-282): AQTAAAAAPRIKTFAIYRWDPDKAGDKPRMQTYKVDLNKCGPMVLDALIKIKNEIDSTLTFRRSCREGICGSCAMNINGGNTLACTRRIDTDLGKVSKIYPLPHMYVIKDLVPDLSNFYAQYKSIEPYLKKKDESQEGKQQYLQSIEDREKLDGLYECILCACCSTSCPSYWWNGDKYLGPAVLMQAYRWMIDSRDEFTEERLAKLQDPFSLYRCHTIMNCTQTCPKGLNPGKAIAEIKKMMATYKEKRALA
T1 sequence (Q641Z9 1-169): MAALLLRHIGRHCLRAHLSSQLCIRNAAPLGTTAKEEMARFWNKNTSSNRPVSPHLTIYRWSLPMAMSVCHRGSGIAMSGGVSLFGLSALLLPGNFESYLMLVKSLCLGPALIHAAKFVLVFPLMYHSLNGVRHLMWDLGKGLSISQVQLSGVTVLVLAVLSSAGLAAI
T1 sequence (Q6PCT8 57-159): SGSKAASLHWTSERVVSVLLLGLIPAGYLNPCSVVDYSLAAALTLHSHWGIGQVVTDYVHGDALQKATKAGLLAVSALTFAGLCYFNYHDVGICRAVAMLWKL
Procedure, shortened: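 Activity relative to DMSO (set as 1) after 15-min exposure of submitochondrial particles (1 mg/ml) to compound. RCC I is defined as rotenone-sensitive activity and RCC II is followed at 600 nm over 6 min.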

RCC III = RCC III activity in submitochondrial particles; assay type: biochemical, rat; parameters: key to RCC III at 100XCmax: activity relative to DMSO-treated controls (control set as 1 = 100%); details: 100XCmax
Procedure, shortened: as §1

[5] = tested on: isolated rat liver mitochondria; assay: Mitochondrial inner membrane potential (MMP), Rhodamine 123; assay type: biochemical; details: difference in signal between KI and DMSO treated samples at the end of experiments
Source text: Fig. 3 KI effects on mitochondrial inner membrane potential (MMP). […] In a, c, data are means and standard derivations from three separate experiments. *p < 0.05 as compared to DMSO-treated samples at the end of experiments. In b, data are means of two independent experiments

[6] = relative to DMSO treated samples
[7] = human therapeutic Cmax at FDA recommended dosages, ref product labeling and drug approval packages at the official FDA website
[8] = 1XCmax, DMSO treated samples set as 1
[9] = 2.5XCmax, DMSO treated samples set as 1
[10] = 5XCmax, DMSO treated samples set as 1
[11] = 10XCmax, DMSO treated samples set as 1
[12] = 20XCmax, DMSO treated samples set as 1
[13] = 30XCmax, DMSO treated samples set as 1
[14] = 50XCmax, DMSO treated samples set as 1
[15] = 100XCmax, DMSO treated samples set as 1

CNC(=O)c1ccccc1Sc1ccc2c(/C=C/c3ccccn3)n[nH]c2c1 [Axitinib]
DILI potential (based on labeling) ([1]; 1 = DILI positive, 0 = negative, ref product labeling): 1
Labeling for DILI ([1]; BBW: black box warning, W&P: Warnings and Precautions, ref product labeling): W&P: ALT↑
labeling for DILI ([1]; W&P warnings and precautions, BBW black box warnings, ref FDA product labeling): W&P: ALT↑/monitoring
DILI potential (based on labeling) ([1]; ref FDA product labeling): 1
RCC IV at 50XCmax (RCC IV; [6]): 0
RCC I at 10XCmax (RCC I; [6]): 0
Swelling 1XCmax [2]: 0
Swelling 2.5XCmax [2]: 0
Swelling 5XCmax [2]: 0
Swelling 10XCmax [2]: 0
Swelling 20XCmax [2]: 0
Swelling 30XCmax [2]: 0
Swelling 50XCmax [2]: 0
Swelling 100XCmax [2]: 0
Cmax [3, 7]: 0.07 µM
Cmax ([3]; therapeutic maximal blood concentration, ref product labeling): 27.8 ng/mL
RCC V at 5XCmax (RCC V; [6]): 0
RCC V at 50XCmax (RCC V; [6]): 0
State 3 respiration driven by glutamate/malate at 1XCmax [4, 8]: 0
State 3 respiration driven by succinate at 1XCmax [4, 8]: 0
State 4 respiration driven by glutamate/malate at 1XCmax [4, 8]: 0
State 4 respiration driven by succinate at 1XCmax [4, 8]: 0
State 3 respiration driven by glutamate/malate at 2.5XCmax [4, 9]: 0
State 3 respiration driven by succinate at 2.5XCmax [4, 9]: 0
State 4 respiration driven by glutamate/malate at 2.5XCmax [4, 9]: 0
State 4 respiration driven by succinate at 2.5XCmax [4, 9]: 0
State 3 respiration driven by glutamate/malate at 5XCmax [4, 10]: 0
State 3 respiration driven by succinate at 5XCmax [4, 10]: 0
State 4 respiration driven by glutamate/malate at 5XCmax [4, 10]: 0
State 4 respiration driven by succinate at 5XCmax [4, 10]: 0
State 3 respiration driven by glutamate/malate at 10XCmax [4, 11]: 0
State 3 respiration driven by succinate at 10XCmax [4, 11]: 0
State 4 respiration driven by glutamate/malate at 10XCmax [4, 11]: 0
State 4 respiration driven by succinate at 10XCmax [4, 11]: 0
State 3 respiration driven by glutamate/malate at 20XCmax [4, 12]: 0
State 3 respiration driven by succinate at 20XCmax [4, 12]: 0
State 4 respiration driven by glutamate/malate at 20XCmax [4, 12]: 0
State 4 respiration driven by succinate at 20XCmax [4, 12]: 0
State 3 respiration driven by glutamate/malate at 30XCmax [4, 13]: 0
State 3 respiration driven by succinate at 30XCmax [4, 13]: 0
State 4 respiration driven by glutamate/malate at 30XCmax [4, 13]: 0
State 4 respiration driven by succinate at 30XCmax [4, 13]: 0
State 3 respiration driven by glutamate/malate at 50XCmax [4, 14]: 0
State 3 respiration driven by succinate at 50XCmax [4, 14]: 0
State 4 respiration driven by glutamate/malate at 50XCmax [4, 14]: 0
State 4 respiration driven by succinate at 50XCmax [4, 14]: 0
State 3 respiration driven by glutamate/malate at 100XCmax [4, 15]: 0
State 3 respiration driven by succinate at 100XCmax [4, 15]: 0
State 4 respiration driven by glutamate/malate at 100XCmax [4, 15]: 0
State 4 respiration driven by succinate at 100XCmax [4, 15]: 0
RCC II at 1.0XCmax (RCC II; [6]): 0
RCC II at 2.5XCmax (RCC II; [6]): 0
RCC II at 5XCmax (RCC II; [6]): 0
RCC II at 10XCmax (RCC II; [6]): 0
RCC II at 20XCmax (RCC II; [6]): 0
RCC II at 30XCmax (RCC II; [6]): 0
RCC II at 50XCmax (RCC II; [6]): 0
RCC II at 100XCmax (RCC II; [6]): 0
RCC III at 100XCmax (RCC III; [6]): 0
MMP measured by Rhodamine 123 at 1XCmax [5]: 0
MMP measured by Rhodamine 123 at 2.5XCmax [5]: 0
MMP measured by Rhodamine 123 at 5XCmax [5]: 0
MMP measured by Rhodamine 123 at 10XCmax [5]: 0
MMP measured by Rhodamine 123 at 20XCmax [5]: 0
MMP measured by Rhodamine 123 at 30XCmax [5]: 0
MMP measured by Rhodamine 123 at 50XCmax [5]: 0
MMP measured by Rhodamine 123 at 100XCmax [5]: 0

COc1cc2nccc(Oc3ccc(NC(=O)NC4CC4)c(Cl)c3)c2cc1C(N)=O [Lenvatinib]
RCC IV at 50XCmax (RCC IV; DMSO treated samples set as 1): 0
RCC I at 10XCmax (RCC I; DMSO treated samples set as 1): 0
Swelling 1XCmax [2]: 0
Swelling 2.5XCmax [2]: 0
Swelling 5XCmax [2]: 0
Swelling 10XCmax [2]: 0
Swelling 20XCmax [2]: 0
Swelling 30XCmax [2]: 0
Swelling 50XCmax [2]: 0
Swelling 100XCmax [2]: 0
Cmax [3, 7]: 0.68 µM
Cmax (ng or µg/ml) ([3]; human therapeutic maximal blood concentration, ref product labeling): 0.291 µg/mL
Cmax ([3]; read-out: Cmax at µM, human therapeutic maximal blood concentration, ref product labeling): 0.68 µM
RCC V at 5XCmax (RCC V; DMSO treated samples set as 1): 0
RCC V at 50XCmax (RCC V; DMSO treated samples set as 1): 0
State 3 respiration driven by succinate at 1XCmax [4, 8]: 0
State 4 respiration driven by succinate at 1XCmax [4, 8]: 0
State 3 respiration driven by succinate at 2.5XCmax [4, 9]: 0
State 4 respiration driven by succinate at 2.5XCmax [4, 9]: 0
State 3 respiration driven by succinate at 5XCmax [4, 10]: 0
State 4 respiration driven by succinate at 5XCmax [4, 10]: 0
State 3 respiration driven by succinate at 10XCmax [4, 11]: 0
State 4 respiration driven by succinate at 10XCmax [4, 11]: 0
State 3 respiration driven by succinate at 20XCmax [4, 12]: 0
State 4 respiration driven by succinate at 20XCmax [4, 12]: 0
Glutamate/malate driven respiration State 3 ([4]; 30-fold Cmax): 0.76 ± 0.05
Glutamate/malate driven respiration State 4 ([4]; 30-fold Cmax): 0.95 ± 0.06
Succinate-driven respiration State 3 ([4]; 30-fold Cmax): 0.86 ± 0.04
Succinate-driven respiration State 4 ([4]; 30-fold Cmax): 0.94 ± 0.01
State 3 respiration driven by glutamate/malate at 30XCmax [4, 13]: 0.76±0.05
State 3 respiration driven by succinate at 30XCmax [4, 13]: 0
State 4 respiration driven by succinate at 30XCmax [4, 13]: 0
Glutamate/malate driven respiration State 3 ([4]; 50-fold Cmax): 0.70 ± 0.02
Glutamate/malate driven respiration State 4 ([4]; 50-fold Cmax): 0.93 ± 0.01
Succinate-driven respiration State 3 ([4]; 50-fold Cmax): 0.90 ± 0.01
Succinate-driven respiration State 4 ([4]; 50-fold Cmax): 0.96 ± 0.03
State 3 respiration driven by glutamate/malate at 50XCmax [4, 14]: 0.70±0.02
State 3 respiration driven by succinate at 50XCmax [4, 14]: 0
State 4 respiration driven by succinate at 50XCmax [4, 14]: 0
Glutamate/malate driven respiration State 3 ([4]; 100-fold Cmax): 0.74 ± 0.04
Glutamate/malate driven respiration State 4 ([4]; 100-fold Cmax): 1.06 ± 0.06
Succinate-driven respiration State 3 ([4]; 100-fold Cmax): 0.99 ± 0.03
Succinate-driven respiration State 4 ([4]; 100-fold Cmax): 1.07 ± 0.03
State 3 respiration driven by glutamate/malate at 100XCmax [4, 15]: 0.74±0.04
State 3 respiration driven by succinate at 100XCmax [4, 15]: 0
State 4 respiration driven by succinate at 100XCmax [4, 15]: 0
lowest concentration significantly affecting mitochondrial oxygen consumption ([4]; tested at 1 to 100-fold Cmax): 30 fold Cmax
RCC II at 1.0XCmax (RCC II; DMSO treated samples set as 1): 0
RCC II at 2.5XCmax (RCC II; DMSO treated samples set as 1): 0
RCC II at 5XCmax (RCC II; DMSO treated samples set as 1): 0
RCC II at 10XCmax (RCC II; DMSO treated samples set as 1): 0
RCC II at 20XCmax (RCC II; DMSO treated samples set as 1): 0
RCC II at 30XCmax (RCC II; DMSO treated samples set as 1): 0
RCC II at 50XCmax (RCC II; DMSO treated samples set as 1): 0
RCC II at 100XCmax (RCC II; DMSO treated samples set as 1): 0
RCC III at 100XCmax (RCC III): 0
MMP measured by Rhodamine 123 at 1XCmax [5]: 0
MMP measured by Rhodamine 123 at 2.5XCmax [5]: 0
MMP measured by Rhodamine 123 at 5XCmax [5]: 0
MMP measured by Rhodamine 123 at 10XCmax [5]: 0
MMP measured by Rhodamine 123 at 20XCmax [5]: 0
MMP measured by Rhodamine 123 at 30XCmax [5]: 0
MMP measured by Rhodamine 123 at 50XCmax [5]: 0
MMP measured by Rhodamine 123 at 100XCmax [5]: 0
